Source: patent US20020012738A1, “Low calorie fat compositions” (priority 2000, published 2002)

Legend:
porcine lipase [1] = target: T1, porcine lipase (Sus scrofa, UniProt P00591); assay: Hydrolysis by pancreatic lipase, organic solution assay; type: in vitro ADME; details: 30° C., tamyl alcohol, Bis-Tris propane buffer pH 7.8, 300 mg fat, unit assumed
T1 sequence (P00591 1-450): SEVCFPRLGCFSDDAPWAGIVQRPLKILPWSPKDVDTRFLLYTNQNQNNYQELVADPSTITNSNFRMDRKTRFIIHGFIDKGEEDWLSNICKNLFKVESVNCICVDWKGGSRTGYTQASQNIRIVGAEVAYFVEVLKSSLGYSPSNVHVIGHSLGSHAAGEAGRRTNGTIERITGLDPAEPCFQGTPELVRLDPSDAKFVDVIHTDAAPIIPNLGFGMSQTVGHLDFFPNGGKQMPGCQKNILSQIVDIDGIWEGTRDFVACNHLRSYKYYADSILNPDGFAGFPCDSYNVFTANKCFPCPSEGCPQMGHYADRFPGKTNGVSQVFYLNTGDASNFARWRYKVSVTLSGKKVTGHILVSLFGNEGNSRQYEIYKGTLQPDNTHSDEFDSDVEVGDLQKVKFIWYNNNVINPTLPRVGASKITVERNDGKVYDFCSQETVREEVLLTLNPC
Description: The digestibility of the wax esters derived from long chain and medium chain combinations (III and IV) of the present invention were done to compare with triolein and wax esters derived from long chain acids and long chain alcohols. The in-vitro assays were done using two emulsion systems as in the following procedure. Each digest was carried out with 300 mg of the fat/fat substitute, 9 ml of the ^tamyl alcohol, 0.5 ml of Bis-Tris propane buffer (10 mM, pH 7.8) and 0.5 ml of porcine lipase (20 mg/mi). The reaction was incubated at 30° C. and the reaction stopped by adding 1 ml aliquots to 3 ml of isopropanol/heptane/sulfuric acid (40/10/1). The product was extracted with heptane and analyzed by GC and GC-MS at 360° C.

porcine lipase [2] = target: T1, porcine lipase; assay: Hydrolysis by pancreatic lipase, aqueous emulsion assay; type: in vitro ADME; details: 30° C., Bis-Tris propane buffer pH 7.8, HMPC, sodium cholate, 300 mg fat, unit assumed
Description: The digestibility of the wax esters derived from long chain and medium chain combinations (III and IV) of the present invention were done to compare with triolein and wax esters derived from long chain acids and long chain alcohols. The in-vitro assays were done using two emulsion systems as in the following procedure. A mixture of 300 mg of the fat/fat substitute, 4 ml of Bis-Tris propane buffer (10 mM, pH 7.8), 5 ml of hydroxyproylmethylcellulose (HMPC, […]), 0.5 ml of sodium cholate (0.1 M) were sonicated to disperse the fats and incubated at 30° C. Porcine lipase (0.5 ml, 20 mg/ml) was added. The analysis of the reaction was carried out as in the above organic solution assay.

Row | Hydrolysis by pancreatic lipase, Organic Solution Assay 24 hr (porcine lipase [1]) | Hydrolysis by pancreatic lipase, Aqueous Emulsion Assay 24 hr (porcine lipase [2]) | SMILES
1 | 7.6% | 14.7% | CCCCCCCCCCCCCCCCCCCCOC(=O)CCCCCCC [Arachidyl caprylate]
2 | 69.2% | 93.3% | CCCCCCCC/C=C\CCCCCCCC(=O)OCC(COC(=O)CCCCCCC/C=C\CCCCCCCC)OC(=O)CCCCCCC/C=C\CCCCCCCC [Triolein, reference compound]
3 | 2.2% | 4% | CCCCCCCCCCCCCCCCCCCCOC(=O)CCCCC [Arachidyl caproate]
4 | 5.4% | 11.7% | CCCCCCCCCCCCCCCCCCCC(=O)OCCCCCC [Hexyl arachidate]
